Patent US10562909B2, “Fused quadracyclic compounds, compositions and uses thereof” (Tabomedex Biosciences, LLC, priority 2016, dated 2020)

Biological target: MAPKAPK2 (Homo sapiens, UniProt P49137)
Experiment: MK2 Enzymatic Assay
Type: biochemical
Details: 0.5 nM MAPKAPK2, 3 μM ATP, 2 μM Ser/Thr4 peptide, 23° C., values given as concentration bins
Protocol: Briefly, 5 μL of 2× (4 μM) 100% phosphorylation peptide was delivered into the control wells of a 384-well assay plate. 5 μL of 2× (1 nM) MAPKAPK2 and 2× peptide (4 μM) mixture in assay buffer was dispensed to remaining columns of assay plate using Eppendorf electronic multiple channel pipette. The assay plate was incubated for 20 minutes. 5 μL of 2× ATP (6 μM) in assay buffer was dispensed to each well and then the assay plate was lightly centrifuged. The assay plate was incubated for an additional 120 minutes.
5 μL of development reagent A was dispensed to all wells using Eppendorf electronic multiple channel pipette. After incubating the development reaction for 120 min, plates were read on a Perkin Elmer Envision instrument.
Percent phosphorylation was calculated using the following formula:
[formula] Where • C100%=Average Coumarin emission signal of the 100% Phos. Control • C0%=Average Coumarin emission signal of the 0% Phos. Control • F100%=Average Fluorescein emission signal of the 100% Phos. Control • F0%=Average Flurescein emission signal of the 0% Phos. Control

MAPKAPK2, sequence (P49137 whole entry, species assumed): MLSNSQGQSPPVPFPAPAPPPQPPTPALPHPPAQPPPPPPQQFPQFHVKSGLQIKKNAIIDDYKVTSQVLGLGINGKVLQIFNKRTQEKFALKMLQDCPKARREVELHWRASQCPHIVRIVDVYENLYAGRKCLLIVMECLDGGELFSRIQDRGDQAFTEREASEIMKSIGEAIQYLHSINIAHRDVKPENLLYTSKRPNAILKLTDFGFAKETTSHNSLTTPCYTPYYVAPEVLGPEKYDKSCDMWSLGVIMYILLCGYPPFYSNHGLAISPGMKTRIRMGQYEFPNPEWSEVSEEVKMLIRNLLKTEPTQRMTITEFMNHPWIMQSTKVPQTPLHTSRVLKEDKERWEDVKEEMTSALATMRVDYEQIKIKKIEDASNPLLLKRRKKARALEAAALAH

Row | IC50 | SMILES
1 | < 50 nM | CNCC1CN(c2ccc3c(n2)Cn2cc(-c4ccc(C#N)cc4)cc2-c2nccn2-3)C1 [Compound 295, 4-(7-(3-((methylamino)methyl)azetidin-1-yl)-9H-imidazo[2,1-c]pyrido[3,2-e]pyrrolo[1,2-a] [1,4]diazepin-12-yl)benzonitrile]
2 | < 50 nM | CC(C)(CO)NC[C@@H]1CCN(c2ccc3c(c2)Cn2cc(-c4ccc(C#N)cc4)cc2-c2nccn2-3)C1 [Compound 141, (S)-4-(7-(3-(((1-hydroxy-2-methylpropan-2-yl)amino)methyl)pyrrolidin-1-yl)-9H-benzo[e]imidazo[2,1-c]pyrrolo[1,2-a][1,4]diazepin-12-yl)benzonitrile]
3 | 50 to 100 nM | OC[C@H]1CN(c2ccc3c(c2)Cn2cc(-c4ccc(F)cc4)cc2-c2nccn2-3)C[C@@H]1O [Compound 484, (3R,4R)-1-(12-(4-fluorophenyl)-9H-benzo[e]imidazo[2,1-c]pyrrolo[1,2-a][1,4]diazepin-7-yl)-4-(hydroxymethyl)pyrrolidin-3-ol]
4 | < 50 nM | CN(C)C[C@H]1CN(c2ccc3c(c2)Cn2cc(-c4ccc(F)cc4)cc2-c2nccn2-3)C[C@H]1O [Compound 349, (3S,4S)-4-((dimethylamino)methyl)-1-(12-(4-fluorophenyl)-9H-benzo[e]imidazo[2,1-c]pyrrolo[1,2-a][1,4]diazepin-7-yl)pyrrolidin-3-ol]
5 | 100 to 200 nM | CN(C)[C@@H]1CN(c2ccc3c(c2)Cn2cc(-c4ccc(F)cc4)cc2-c2ncnn2-3)C[C@H]1CO (relative stereo) [Compound 504, (Trans-4-(dimethylamino)-1-(12-(4-fluorophenyl)-9H-benzo[e]pyrrolo[1,2-a][1,2,4]triazolo[5,1-c][1,4]diazepin-7-yl)pyrrolidin-3-yl)methanol]
6 | < 50 nM | CN(C)[C@H]1CN(c2ccc3c(c2)Cn2cc(-c4ccc(C#N)cc4)cc2-c2nccn2-3)C[C@H]1O [Compound 133, 4-(7-((3S,4R)-3-(dimethylamino)-4-hydroxypyrrolidin-1-yl)-9H-benzo[e]imidazo[2,1-c]pyrrolo[1,2-a][1,4]diazepin-12-yl)benzonitrile]
7 | < 50 nM | C[C@@H](CO)NC[C@@H]1CCN(c2ccc3c(c2)Cn2cc(-c4ccc(C#N)cc4)cc2-c2nncn2-3)C1 [Compound 86, 4-(7-((S)-3-((((S)-1-hydroxypropan-2-yl)amino)methyl)pyrrolidin-1-yl)-9H-benzo[e]pyrrolo[1,2-a][1,2,4]triazolo[3,4-c][1,4]diazepin-12-yl)benzonitrile]
8 | < 50 nM | CN(C)[C@@H]1CN(c2ccc3c(n2)Cn2cc(-c4ccc(F)cc4)cc2-c2nccn2-3)C[C@H]1O [Compound 431, (3R,4R)-4-(dimethylamino)-1-(12-(4-fluorophenyl)-9H-imidazo[2,1-c]pyrido[3,2-e]pyrrolo[1,2-a][1,4]diazepin-7-yl)pyrrolidin-3-ol]
9 | < 50 nM | N[C@@H]1CCCN(c2ccc3c(c2)Cn2cc(-c4ccc(F)cc4)cc2-c2nnnn2-3)C1 [Compound 389, (R)-1-(12-(4-fluorophenyl)-9H-benzo[e]pyrrolo[1,2-a]tetrazolo[5,1-c][1,4]diazepin-7-yl) piperidin-3-amine]
10 | < 50 nM | CN(C)C[C@@H]1CCN(c2ccc3c(c2)Cn2cc(-c4ccc(F)cc4)cc2-c2nccn2-3)C1 [Compound 345, (S)-1-(1-(12-(4-fluorophenyl)-9H-benzo[e]imidazo[2,1-c]pyrrolo[1,2-a][1,4]diazepin-7-yl)pyrrolidin-3-yl)-N,N-dimethylmethanamine]
11 | 50 to 100 nM | CN(C)[C@H]1CCN(c2ccc3c(c2)Cn2cc(-c4ccc(F)cc4)cc2-c2nnnn2-3)C1 [Compound 407, (S)-1-(12-(4-fluorophenyl)-9H-benzo[e]pyrrolo[1,2-a]tetrazolo[5,1-c][1,4]diazepin-7-yl)-N,N-dimethylpyrrolidin-3-amine]
12 | < 50 nM | CN(C)[C@@H]1CN(c2ccc3c(c2)Cn2cc(-c4ccc(F)cc4)cc2-c2nccn2-3)C[C@H]1CO (relative stereo) [Compound 490, ((Trans)-4-(dimethylamino)-1-(12-(4-fluorophenyl)-9H-benzo[e]imidazo[2,1-c]pyrrolo[1,2-a][1,4]diazepin-7-yl)pyrrolidin-3-yl)methanol]
13 | 100 to 200 nM | N#Cc1ccc(-c2cc3n(c2)Cc2cc(N4CC5(CCNCC5)C4)ccc2-n2nnnc2-3)cc1 [Compound 245, 4-(7-(2,7-diazaspiro[3.5]nonan-2-yl)-9H-benzo[e]pyrrolo[1,2-a]tetrazolo[5,1-c][1,4]diazepin-12-yl)benzonitrile]

Continued, compound first:

Row | SMILES | IC50
14 | OC1CCN(C[C@H]2CCN(c3ccc4c(c3)Cn3cc(-c5ccccc5)cc3-c3nncn3-4)C2)CC1 [Compound 459, (R)-1-((1-(12-phenyl-9H-benzo[e]pyrrolo[1,2-a][1,2,4]triazolo[3,4-c][1,4]diazepin-7-yl)pyrrolidin-3-yl)methyl)piperidin-4-ol] | 100 to 200 nM
15 | CN1CC2(CCN(c3ccc4c(n3)Cn3cc(-c5ccc(C#N)cc5)cc3-c3nccn3-4)C2)C1 [Compound 297, 4-(7-(2-methyl-2,6-diazaspiro[3.4]octan-6-yl)-9H-imidazo[2,1-c]pyrido[3,2-e]pyrrolo[1,2-a] [1,4]diazepin-12-yl)benzonitrile] | 50 to 100 nM
16 | C[C@H](CO)NC[C@H]1CCN(c2cc3c(cn2)-n2ccnc2-c2cc(-c4ccc(F)cc4)cn2C3)C1 [Compound 442, (R)-2-((((R)-1-(12-(4-fluorophenyl)-9H-imidazo[2,1-c]pyrido[3,4-e]pyrrolo[1,2-a][1,4]diazepin-7-yl)pyrrolidin-3-yl)methyl)amino)propan-1-ol] | 100 to 200 nM
17 | NC[C@H]1CN(c2ccc3c(c2)Cn2cc(-c4ccc(F)cc4)cc2-c2nccn2-3)C[C@@H]1O [Compound 365, (3R,4S)-4-(aminomethyl)-1-(12-(4-fluorophenyl)-9H-benzo[e]imidazo[2,1-c]pyrrolo[1,2-a] [1,4]diazepin-7-yl)pyrrolidin-3-ol] | 50 to 100 nM
18 | CN1CC2(CCN(c3cc4c(cn3)-n3ccnc3-c3cc(-c5ccc(C#N)cc5)cn3C4)C2)C1 [Compound 322, 4-(7-(2-methyl-2,6-diazaspiro[3.4]octan-6-yl)-9H-imidazo[2,1-c]pyrido[3,4-e]pyrrolo[1,2-a] [1,4]diazepin-12-yl)benzonitrile] | 100 to 200 nM
19 | CNCC1CN(c2ccc3c(c2)Cn2cc(-c4ccc(F)cc4)cc2-c2nccn2-3)C1 [Compound 341, 1-(1-(12-(4-fluorophenyl)-9H-benzo[e]imidazo[2,1-c]pyrrolo[1,2-a][1,4]diazepin-7-yl)azetidin-3-yl)-N-methylmethanamine] | < 50 nM
20 | N[C@@H]1CN(c2ccc3c(c2)Cn2cc(-c4ccc(F)cc4)cc2-c2ncnn2-3)C[C@H]1CO (relative stereo) [Compound 503, (Trans-4-amino-1-(12-(4-fluorophenyl)-9H-benzo[e]pyrrolo[1,2-a][1,2,4]triazolo[5,1-c][1,4]diazepin-7-yl)pyrrolidin-3-yl)methanol] | 100 to 200 nM
21 | CN(C)C[C@@H]1CN(c2ccc3c(c2)Cn2cc(-c4ccc(F)cc4)cc2-c2nccn2-3)C[C@@H]1O [Compound 350, (3R,4R)-4-((dimethylamino)methyl)-1-(12-(4-fluorophenyl)-9H-benzo[e]imidazo[2,1-c]pyrrolo[1,2-a][1,4]diazepin-7-yl)pyrrolidin-3-ol] | < 50 nM
22 | Fc1ccc(-c2cc3n(c2)Cc2cc(N4CC5(CCNC5)C4)ccc2-n2nnnc2-3)cc1 [Compound 403, 12-(4-fluorophenyl)-7-(2,6-diazaspiro[3.4]octan-2-yl)-9H-benzo[e]pyrrolo[1,2-a]tetrazolo[5,1-c][1,4]diazepine] | 50 to 100 nM
23 | OC1CN(c2ccc3c(c2)Cn2cc(-c4ccc(F)cc4)cc2-c2nccn2-3)CC1CN1CCC1 (single isomer, unassigned) [Compound 468] | < 50 nM
24 | CN(C)C[C@@H]1CN(c2ccc3c(c2)Cn2cc(-c4ccc(C#N)cc4)cc2-c2nncn2-3)C[C@@H]1O [Compound 82, 4-(7-((3R,4R)-3-((dimethylamino)methyl)-4-hydroxypyrrolidin-1-yl)-9H-benzo[e]pyrrolo[1,2-a][1,2,4]triazolo[3,4-c][1,4]diazepin-12-yl)benzonitrile] | < 50 nM
25 | CNC[C@H]1CCN(c2ccc3c(c2)Cn2cc(-c4ccc(C#N)cc4)cc2-c2ncnn2-3)C1 [Compound 263, (R)-4-(7-(3-((methylamino)methyl)pyrrolidin-1-yl)-9H-benzo[e]pyrrolo[1,2-a][1,2,4]triazolo[5,1-c][1,4]diazepin-12-yl)benzonitrile] | 100 to 200 nM
26 | CN(C)[C@@H]1CN(c2ccc3c(n2)Cn2cc(-c4ccc(C#N)cc4)cc2-c2nccn2-3)C[C@@H]1O [Compound 303, 4-(7-((3R,4S)-3-(dimethylamino)-4-hydroxypyrrolidin-1-yl)-9H-imidazo[2,1-c]pyrido[3,2-e]pyrrolo[1,2-a][1,4]diazepin-12-yl)benzonitrile] | 50 to 100 nM
27 | N#Cc1ccc(-c2cc3n(c2)Cc2cc(N4CC[C@@H](CN5CCC(O)CC5)C4)ccc2-n2ccnc2-3)cc1 [Compound 142, (S)-4-(7-(3-((4-hydroxypiperidin-1-yl)methyl)pyrrolidin-1-yl)-9H-benzo[e]imidazo[2,1-c]pyrrolo[1,2-a][1,4]diazepin-12-yl)benzonitrile] | < 50 nM
28 | Fc1ccc(-c2cc3n(c2)Cc2cc(N4CC5(CCCNC5)C4)ccc2-n2ccnc2-3)cc1 [Compound 377, 12-(4-fluorophenyl)-7-(2,6-diazaspiro[3.5]nonan-2-yl)-9H-benzo[e]imidazo[2,1-c]pyrrolo[1,2-a][1,4]diazepine] | < 50 nM
